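96-well plates; 48 h exposure; 5 concentrations. Endpoints by linear interpolation between flanking doses. Not reached: highest tested concentration assigned. At the GI50, growth is halved.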 Active and inactive are the calls of the source. Cut-off read from the data, not from the text of the source: active = GI50 up to about 1.1 µM and inactive = higher.
Assays:
Experiment in all cases: NCI tumour cell line growth inhibition, 48 h
SF-539 = system: SF-539
KM12 = system: KM12
U-251 = system: U-251
IGROV-1 = system: IGROV-1
HT-29 = system: HT-29
SF-295 = system: SF-295
HOP-62 = system: HOP-62
TK-10 = system: TK-10
MDA-MB-435 = system: MDA-MB-435
RPMI-8226 = system: RPMI-8226
MDA-N = system: MDA-N
UACC-62 = system: UACC-62
NCI-H460 = system: NCI-H460
NCI-H522 = system: NCI-H522
SW-620 = system: SW-620
COLO 205 = system: COLO 205
BT-549 = system: BT-549
CCRF-CEM = system: CCRF-CEM
SR = system: SR
SK-MEL-2 = system: SK-MEL-2

Row | SMILES | GI50 (SF-539) | GI50 (KM12) | GI50 (U-251) | GI50 (IGROV-1) | GI50 (HT-29) | GI50 (SF-295) | GI50 (HOP-62) | GI50 (TK-10) | GI50 (MDA-MB-435) | GI50 (RPMI-8226) | GI50 (MDA-N) | GI50 (UACC-62) | GI50 (NCI-H460) | GI50 (NCI-H522) | GI50 (SW-620) | GI50 (COLO 205) | GI50 (BT-549) | GI50 (CCRF-CEM) | GI50 (SR) | GI50 (SK-MEL-2)
1 | COc1cc(/N=N/c2cccc(S(N)(=O)=O)c2)c2ccccc2c1N | 3.05 µM (inactive) | 12.9 µM (inactive) | 7.48 µM (inactive) | 10.3 µM (inactive) | 15.2 µM (inactive) | 10.5 µM (inactive) | 7.35 µM (inactive) | 16.1 µM (inactive) | 2 µM (inactive) | 16.3 µM (inactive) | 2.41 µM (inactive) | 2.07 µM (inactive) | 9.98 µM (inactive) | 12.1 µM (inactive) | 23.9 µM (inactive) | 13 µM (inactive) | 7.33 µM (inactive) | 8.17 µM (inactive) | 11.3 µM (inactive) | 2.26 µM (inactive)
2 | CCN1C=C/C(=C\C=C\c2cc[n+](CC)c3ccccc23)c2ccccc21 | 3.39 µM (inactive) | 3.42 µM (inactive) | 3.8 µM (inactive) | 3.59 µM (inactive) | 3.51 µM (inactive) | 3.58 µM (inactive) | 3.24 µM (inactive) | 10.6 µM (inactive) | 4.21 µM (inactive) | 3.07 µM (inactive) | 7.01 µM (inactive) | 10.8 µM (inactive) | 3.4 µM (inactive) | 7.43 µM (inactive) | 4.62 µM (inactive) | 3.72 µM (inactive) | 20.7 µM (inactive) | 4.52 µM (inactive) | 3.33 µM (inactive) | 7.62 µM (inactive)
3 | COC(=O)c1c2c(cc3c1CC1(Cc4ccc(C(C)=O)cc4C1)C3)CCC2 (centres undefined) | 85.3 µM (inactive) | 17.6 µM (inactive) | 50.7 µM (inactive) | 87.5 µM (inactive) | 19.5 µM (inactive) | 40.5 µM (inactive) | 91.2 µM (inactive) | > 100 µM (inactive) | 6.92 µM (inactive) | 24.7 µM (inactive) | 7.64 µM (inactive) | 35.7 µM (inactive) | 42.2 µM (inactive) | 21 µM (inactive) | 28.3 µM (inactive) | 31.9 µM (inactive) | 56.8 µM (inactive) | 27.7 µM (inactive) | 20.7 µM (inactive) | –
4 | NC(=S)SC1=NC(=O)C2(NN1)c1ccccc1-c1ccccc12 | > 10 µM (inactive) | > 10 µM (inactive) | – | > 10 µM (inactive) | > 10 µM (inactive) | > 10 µM (inactive) | > 10 µM (inactive) | > 10 µM (inactive) | > 10 µM (inactive) | 5.12 µM (inactive) | > 10 µM (inactive) | > 10 µM (inactive) | 8.59 µM (inactive) | 4.27 µM (inactive) | > 10 µM (inactive) | > 10 µM (inactive) | > 10 µM (inactive) | > 10 µM (inactive) | > 10 µM (inactive) | –
5 | C=C(C)CCC(=O)[C@](C)(O)[C@H]1[C@H](O)C[C@@]2(C)[C@@H]3CCc4c(cc(OC5OC(CO)C(O)C(O)C5O)c(O)c4C)C3(C)C(=O)C[C@]12C (some centres undefined) | > 100 µM (inactive) | > 100 µM (inactive) | > 100 µM (inactive) | > 100 µM (inactive) | > 100 µM (inactive) | > 100 µM (inactive) | > 100 µM (inactive) | > 100 µM (inactive) | > 100 µM (inactive) | – | > 100 µM (inactive) | > 100 µM (inactive) | > 100 µM (inactive) | > 100 µM (inactive) | > 100 µM (inactive) | > 100 µM (inactive) | > 100 µM (inactive) | > 100 µM (inactive) | > 100 µM (inactive) | > 100 µM (inactive)
6 | CCCC(=O)OC1CC(n2cc(F)c(=O)[nH]c2=O)OC1CO (centres undefined) | 0.00859 µM (active) | > 10 µM (inactive) | > 5.24 µM (inactive) | > 5.89 µM (inactive) | 1.29 µM (inactive) | 0.148 µM (active) | 0.0583 µM (active) | > 2.67 µM (inactive) | 2.79 µM (inactive) | – | 1.63 µM (inactive) | 0.0863 µM (active) | 0.0948 µM (active) | 6.34 µM (inactive) | > 10 µM (inactive) | 4.71 µM (inactive) | 0.726 µM (active) | 0.0355 µM (active) | 0.0493 µM (active) | > 10 µM (inactive)
7 | O=C(c1ccccc1)N1C(=S)N(c2ccc([N+](=O)[O-])cc2)C(=N/c2ccccc2)/C1=N\c1ccccc1 | > 100 µM (inactive) | > 100 µM (inactive) | 44.8 µM (inactive) | > 100 µM (inactive) | > 100 µM (inactive) | > 100 µM (inactive) | > 100 µM (inactive) | > 100 µM (inactive) | > 100 µM (inactive) | > 100 µM (inactive) | 52.7 µM (inactive) | 97.5 µM (inactive) | 72.1 µM (inactive) | 9.06 µM (inactive) | > 100 µM (inactive) | > 100 µM (inactive) | > 100 µM (inactive) | – | 20.6 µM (inactive) | > 100 µM (inactive)

Source: ChEMBL document CHEMBL1201862, “PubChem BioAssay data set” (2004)
